Test results as given in patent publication US20260042762A1 (Kymera Therapeutics, Inc., priority 2018, published 2026).
Structures can show the parent of a compound that is named as a salt.

Target: T1, MerTK (Homo sapiens, UniProt Q12866)
T1 construct: endogenous in cells; host or cells: Jurkat cells
T1 sequence (Q12866 21-999): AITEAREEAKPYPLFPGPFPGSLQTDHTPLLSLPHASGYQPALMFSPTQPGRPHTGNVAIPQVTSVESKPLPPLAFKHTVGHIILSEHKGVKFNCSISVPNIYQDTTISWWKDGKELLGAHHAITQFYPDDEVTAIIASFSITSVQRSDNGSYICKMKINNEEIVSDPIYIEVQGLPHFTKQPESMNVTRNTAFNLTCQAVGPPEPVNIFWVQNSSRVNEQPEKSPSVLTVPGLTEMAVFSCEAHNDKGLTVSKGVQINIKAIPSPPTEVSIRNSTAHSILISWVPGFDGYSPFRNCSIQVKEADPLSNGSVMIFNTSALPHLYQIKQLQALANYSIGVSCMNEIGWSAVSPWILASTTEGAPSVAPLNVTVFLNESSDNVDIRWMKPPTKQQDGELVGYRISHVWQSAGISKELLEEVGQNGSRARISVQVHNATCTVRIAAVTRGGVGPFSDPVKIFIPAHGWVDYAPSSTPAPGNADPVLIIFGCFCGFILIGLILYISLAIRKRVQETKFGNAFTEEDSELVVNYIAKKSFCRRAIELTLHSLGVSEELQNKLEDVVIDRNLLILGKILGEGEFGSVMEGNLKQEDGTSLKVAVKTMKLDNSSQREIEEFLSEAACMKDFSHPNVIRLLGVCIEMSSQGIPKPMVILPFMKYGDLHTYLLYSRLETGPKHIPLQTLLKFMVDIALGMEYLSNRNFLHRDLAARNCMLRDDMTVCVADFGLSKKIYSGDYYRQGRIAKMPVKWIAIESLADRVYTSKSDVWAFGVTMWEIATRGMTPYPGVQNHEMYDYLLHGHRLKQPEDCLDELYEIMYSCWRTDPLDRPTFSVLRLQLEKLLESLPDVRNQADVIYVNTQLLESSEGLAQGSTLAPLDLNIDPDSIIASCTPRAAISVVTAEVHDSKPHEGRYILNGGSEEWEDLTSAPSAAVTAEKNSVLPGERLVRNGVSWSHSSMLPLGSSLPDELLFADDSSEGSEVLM
Assay: MerTk degradation in Jurkat cells (Western blot)
Assay type: cell-based
Conditions: Jurkat, 4 h, 0.001-1 μM, 4 hour-incubation at 37° C., read-out: Jurkat Max % MerTK Degradation
Outline: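 MerTK degradation was read by near-infrared Western blot, normalized to actin, in BCA-quantified lysates of Jurkat cells exposed to 0.001-1 μM compound for 4 h at 37 °C.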

SMILES	Dmax [%]
Cn1c(=O)n([C@H]2CCC(=O)NC2=O)c2ccc(CCCOCCOCCOCCN3CCN(Cc4ccc(-c5nn([C@H]6CC[C@H](O)CC6)c6nc(NCCC(F)(F)F)ncc56)cc4)CC3)cc21 [I-63, 3-[3-methyl-2-oxo-5-(3-[2-[2-(2-[4-[(4-[1-[trans-4-hydroxycyclohexyl]-6-[(3,3,3-trifluoropropyl)amino]-1H-pyrazolo[3,4-d]pyrimidin-3-yl]phenyl)methyl]piperazin-1-yl]ethoxy)ethoxy]ethoxy]propyl)-2,3-dihydro-1H-1,3-benzodiazol-1-yl]piperidine-2,6-dione; formic acid]	> 50
Cn1c(=O)n([C@H]2CCC(=O)NC2=O)c2ccc(CCCOCCOCCN3CCN(Cc4ccc(-c5nn([C@H]6CC[C@H](O)CC6)c6nc(NCCC(F)(F)F)ncc56)cc4)CC3)cc21 [I-64, 3-(3-methyl-2-oxo-5-[3-[2-(2-[4-[(4-[1-[trans-4-hydroxycyclohexyl]-6-[(3,3,3-trifluoropropyl)amino]-1H-pyrazolo[3,4-d]pyrimidin-3-yl]phenyl)methyl]piperazin-1-yl]ethoxy)ethoxy]propyl]-2,3-dihydro-1H-1,3-benzodiazol-1-y1)piperidine-2,6-dione]	> 50
CCCCNc1ncc2c(-c3ccc(CN4CCC(OCCCOCCCc5ccc6c(c5)n(C)c(=O)n6[C@H]5CCC(=O)NC5=O)CC4)cc3)cn([C@H]3CC[C@H](O)CC3)c2n1 [I-66, 3-[5-[3-(3-[[1-([4-[2-(butylamino)-7-[trans-4-hydroxycyclohexyl]-7H-pyrrolo[2,3-d]pyrimidin-5-yl]phenyl]methyl)piperidin-4-yl]oxy]propoxy)propyl]-3-methyl-2-oxo-2,3-dihydro-1H-1,3-benzodiazol-1-yl]piperidine-2,6-dione]	> 50
CCCCNc1ncc2c(-c3ccc(CNCCCC(=O)N(C)CCOCCCc4ccc5c(c4)n(C)c(=O)n5[C@H]4CCC(=O)NC4=O)cc3)cn([C@H]3CC[C@H](O)CC3)c2n1 [I-67, 4-[([4-[2-(butylamino)-7-[trans-4-hydroxycyclohexy1]-7H-pyrrolo[2,3-d]pyrimidin-5-yl]phenyl]methyl)amino]-N-(2-[3-[1-(2,6-dioxopiperidin-3-y1)-3-methyl-2-oxo-2,3-dihydro-1H-1,3-benzodiazol-5-yl]propoxy]ethyl)-N-methylbutanamide; formic acid]	> 50
Cc1ncsc1-c1ccc(CNC(=O)[C@@H]2C[C@@H](O)CN2C(=O)[C@@H](NCCNCCCCCN2CCN(Cc3ccc(-c4cn([C@H]5CC[C@H](O)CC5)c5nc(NCCC(F)(F)F)ncc45)cc3)CC2)C(C)(C)C)cc1 [I-68, (2S,4R)-1-[(2S)-3,3-dimethyl-2-([2-[(5-[4-[(4-[7-[trans-4-hydroxycyclohexyl]-2-[(3,3,3-trifluoropropyl)amino]-7H-pyrrolo[2,3-d]pyrimidin-5yl]phenyl)methyl]piperazin-1-yl]pentyl)amino]ethyl]amino)butanoyl]-4-hydroxy-N-[[4-(4-methyl-1,3-thiazol-5-yl)phenyl]methyl]pyrrolidine-2-carboxamide dihydrochloride]	< 20

Second part, the molecule after the results:

Dmax [%]	SMILES
> 50	CCCCNc1ncc2c(-c3ccc(CN4CCN(CCCOCCCOCCCc5ccc6c(c5)n(C)c(=O)n6[C@H]5CCC(=O)NC5=O)CC4)cc3)cn([C@H]3CC[C@H](O)CC3)c2n1 [I-62, 3-[5-[3-(3-[3-[4-([4-[2-(butylamino)-7-[trans-4-hydroxycyclohexy1]-7H-pyrrolo[2,3-d]pyrimidin-5-yl]phenyl]methyl)piperazin-1-y1]propoxy]propoxy)propy1]-3-methyl-2-oxo-2,3-dihydro-1H-1,3-benzodiazol-1-y1]piperidine-2,6-dione dihydrochloride]
> 50	CCCCNc1ncc2c(-c3ccc(CN4CCN(CCCOCCCc5ccc6c(c5)n(C)c(=O)n6[C@H]5CCC(=O)NC5=O)CC4)cc3)cn([C@H]3CC[C@H](O)CC3)c2n1 [I-69, 3-[5-(3-[3-[4-([4-[2-(butylamino)-7-[trans-4-hydroxycyclohexy1]-7H-pyrrolo[2,3-d]pyrimidin-5-yl]phenyl]methyl)piperazin-1-yl]propoxy]propyl)-3-methyl-2-oxo-2,3-dihydro-1H-1,3-benzodiazol-1-yl]piperidine-2,6-dione; bis(formic acid)]
